What was measured:
HCT116 cells = assay: In vitro cytotoxicity measured by the cell colony formation assay; type: cell-based; details: Homo sapiens, HCT-116; read-out: IN VITRO ID 50 (nm) HCT116
Protocol: In Vitro Cytotoxicity Measured by the Cell Colony Formation Assay
Four hundred cells (HCT116) were plated in 60 mm Petri dishes containing 2.7 mL of medium (modified McCoy's 5a medium containing 10% fetal bovine serum and 100 units/mL penicillin and 100 µg/mL streptomycin). The cells were incubated in a CO2 incubator at 37° C. for 5 h for attachment to the bottom of Petri dishes. The compounds identified in Example 2 were made up fresh in medium at ten times the final concentration, and then 0.3 mL of this stock solution was added to the 2.7 mL of medium in the dish. The cells were then incubated with drugs for 72 h at 37° C. At the end of incubation the drug-containing media were decanted, the dishes were rinsed with 4 mL of Hank's Balance Salt Solution (HBSS), 5 mL of fresh medium was added, and the dishes were returned to the incubator for colony formation. The cell colonies were counted using a colony counter after incubation for 7 days.

| SMILES | melting point [°C] | IC50 (HCT116 cells) [nM] |
| --- | --- | --- |
| CCNC(=O)O[C@H]1C(=O)[C@@]2(C)C([C@H](OC(=O)c3ccccc3)[C@]3(O)C[C@H](OC(=O)[C@H](O)[C@@H](NC(=O)OC(C)(C)C)c4cccs4)C(C)=C1C3(C)C)[C@]1(OC(C)=O)CO[C@@H]1C[C@@H]2O (some centres unmarked) (hydrate or solvate) [Compound 2722, 3′-Desphenyl-3′-(2-thienyl)-10-N-ethylcarbamoyl docetaxel] | 166 to 168 | – |
| CCNC(=O)O[C@H]1C(=O)[C@@]2(C)C([C@H](OC(=O)c3ccccc3)[C@]3(O)C[C@H](OC(=O)[C@H](O)[C@@H](NC(=O)OC(C)(C)C)c4cccs4)C(C)=C1C3(C)C)[C@]1(OC(C)=O)CO[C@@H]1C[C@@H]2O (some centres unmarked) [Compound 2722, 3′-Desphenyl-3′-(2-thienyl)-10-N-ethylcarbamoyl docetaxel] | – | < 1 |
